Series [1] has as its target T1, E. coli DH5α tryptophan synthase (TrpBA) (Escherichia coli, UniProt P0A879).
T1 construct: made in house; host or cells: E. coli LMG194 (pBAD) or BL-21 (pET)
Format: biochemical. Set-up: key: +: a clear ninhydrin-positive spot at the Rf of standard tryptophan derivatives after 16-65 h; (+): a weak spot in the product region; −: no product observed; NR: experiment not run. The note with it: indole derivative + L-serine + PLP, 37° C., 16-65 h, ninhydrin. The method, then:
(§1) A mixture containing 2 μmole of the indole derivative, 0.05 μmole of PLP and 50 μmol of L-serine in 40 mM KPi buffer in 8% v/v ethanol water, pH 7.5, was warmed to 37° C., then enzyme solution was added to give a final volume of 1 mL. Aliquots (100 μL) were quenched at intervals of 2, 6, and 24 hours or more in microcentrifuge capsules containing 25 μL of 6 M HCl. The quenched samples were evaporated in a Savant Speed-vac. The residues were resuspended in methanol/water (1:1, 50 μL) and analyzed by TLC on Silica gel GF254 plates alongside tryptophan and tryptamine standards, eluting with CH2Cl2/EtOH/H2O/HOAc 77:20:2:1. Products were visualized first by using short-wave UV light, then with ninhydrin spray reagent (1/1/98 w/v/v ninhydrin/HOAc/EtOH) followed by heating.
(§2) Substituted indoles were incubated with L-serine, PLP and enzyme (TrpBA or TnA) prior to TLC analysis as generally described in Example 6. Serine, which can be used instead of pyruvate and ammonia for tryptophan synthesis with TnA, was employed as the 3-carbon acid because pyruvate tended to obscure the tryptophan product spots when plates were visualized with ninhydrin. TnA-catalyzed formation of tryptophan was also faster when serine was the 3-carbon donor. Reaction rates for several substrates were also estimated by HPLC.
(§3) In Table 4, “+” indicates a clear ninhydrin-positive spot at the Rf of standard tryptophan derivatives after 16-65 h; “(+)” indicates a weak spot in the product region; “−” means no product observed, “NR” means experiment not run. ESMS=electrospray mass spectrometry. Unless otherwise indicated, the mass value given represents the singly-protonated molecular ion (M+1).

For a further series, the target named is T2, TnA (Escherichia coli, UniProt P0A853).
T2 construct: made in house; host or cells: E. coli LMG194 (pBAD) or BL-21 (pET)
Nature of the series: Relative rates of tryptophan derivative synthesis by HPLC, TnA. Format: biochemical, E. coli. Conditions: initial rate estimated by HPLC, indole = 100%, L-serine as the 3-carbon substrate. As for the experimental part:
Aliquots (100 μL) were removed and quenched by addition of to 300 μL of 0.5 M sodium citrate, pH 3.0 in 10% v/v acetonitrile/water in 2 ml microcentrifuge tubes. Following centrifugation for 10 min at 13,000×g, the supernatants were passed through 0.45μ membrane filters prior to HPLC analysis of 20 μL of filtrate.
(§4) TnA reactions were run with L-serine as the 3-carbon substrate.

The subject of a further series is TrpBA and TDC1. Nature of the series: Coupled enzyme synthesis monitored by HPLC. The series is classed as biochemical. Conditions: L-serine, PLP, pH 8.5 phosphate buffer, 37° C. The method, then: To a solution containing L-serine (25 μmol), pyridoxal phosphate (0.05 μmol) and TrpBA (0.02 to 1.5 units, depending on the substrate), TDC1 (0.2 mL 0.6 units) and KPi buffer (0.05 mmol, pH 7.5) in a volume of 0.8 mL were added […] of 5 mM indole derivative in 20% v/v ethanol/water. The mixture was incubated at 37° C. and aliquots were quenched and analyzed as described for Example 8. In cases where tryptamine and/or tryptophan standards were not available, peaks were collected for mass spectral analysis. Electrospray mass spectral analyses were performed.
Mixtures containing indole, L-serine, PLP and TDC1 were incubated in pH 8.5 phosphate buffer, analyzing aliquots by HPLC, as described in Example 12.
The procedure used in Example 24 was carried out by substituting indole with 2-methylindole, 4-hydroxymethylindole, 5-methoxy-, 5-hydroxymethyl-, 5-methoxycarbonyl, and 5,6-dimethoxyindole.

The target in the next series is T3, TrpBA (Escherichia coli, UniProt P0A879).
T3 construct: made in house; host or cells: E. coli LMG194 (pBAD) or BL-21 (pET)
Nature of the series: Relative rates of tryptophan derivative synthesis by HPLC, TrpBA. Details: key: **: rate too slow to quantitate. The series is classed as biochemical, E. coli. The note with it: initial rate estimated by HPLC, indole = 100%. As for the experimental part: Reaction mixtures were prepared as in Example 6 and were incubated at 37° C. Aliquots (100 μL) were removed and quenched by addition of to 300 μL of 0.5 M sodium citrate, pH 3.0 in 10% v/v acetonitrile/water in 2 ml microcentrifuge tubes. Following centrifugation for 10 min at 13,000×g, the supernatants were passed through 0.45μ membrane filters prior to HPLC analysis of 20 μL of filtrate.
as §4

The target in the next series is T4, tryptophanase (TnA) (Escherichia coli, UniProt P0A853).
T4 construct: made in house; host or cells: E. coli LMG194 (pBAD) or BL-21 (pET)
Format: biochemical, E. coli. Set-up: key: +: a clear ninhydrin-positive spot at the Rf of standard tryptophan derivatives after 16-65 h; (+): a weak spot in the product region; −: no product observed; NR: experiment not run. The note with it: indole derivative + L-serine + PLP, 37° C., 16-65 h, ninhydrin. The method, then:
as §1, §2, §3

Series [2] is described as follows: Tryptophanase (tryptophan lyase) activity of the enzyme preparation. Format: biochemical, E. coli. The method, then: Tryptophan synthase activity was assayed by monitoring the increase in absorbance at 290 nm of a mixture containing serine, indole and PLP (Higgins, W., et al., Biochemistry, 1979, 18, 4827). TnA-catalyzed tryptophan synthesis was also measured by the 290 nm assay, while the tryptophan lyase reaction rate was measured by monitoring the reduction in NADH in reaction mixtures containing L-tryptophan and lactate dehydrogenase, indicating the amount of pyruvate released. Tryptophan decarboxylase was assayed colorimetrically by monitoring the sabsorbance at 580 nm produced by serotonin (AAADs) or tryptamine (TDCs) following treatment of reaction aliquots with Ehrlich's reagent (4-N,N-(dimethyl)aminobenzaldehyde in ethanolic HCl; Nakazawa, H.; Kumagi, H.; Yamada, H. Biochem Biophys. Res. Commun., 1974, 61, 75-82). Serotonin could be detected with approximately 5-fold higher sensitivity by this method as compared with tryptamine. The Ehrlich reagent assay using a microtiter plate format for simultaneous analysis of multiple enzyme samples may also be used. HPLC analysis was performed on acid-quenched reaction aliquots by using a base-deactivated C8 reversed-phase support (Shandon Hypersil BD8). HPLC analysis of acid-quenched aliquots permitted calculation of a rate ratio of 4.5 to 1 for pkAAAD-catalyzed DOPA decarboxylation relative to that of L-5-hydroxytryptophan, in good agreement with the accepted ratio of approximately 5:1. (See Sourkes, T. L. Methods Enzymol., 1987, 142, 170-178, which is incorporated herein by reference.)
Activity is expressed as μmol product formed per minute, TrpBA activity is reported for the reaction: indole+serine−>tryptophan at room temperature as described in the next section. Tryptophanase is reported for the reaction: tryptophan−>indole+pyruvate+NH4^+ at room temperature. The rate of tryptophan synthesis for TrpBA under our assay conditions is approximately 3-fold higher at 37° C.

Series [3] is described as follows: pH-rate profiles for tryptophan-metabolizing enzymes. Format: biochemical. The note with it: between pH 7.5 and 9.5, L-serine and indole. The source says:
Both AAADs TDC1 and TDC2 were active over the entire optimum range shown by TrpBA. These broad activity ranges make it clear that the coupled enzyme process is not limited by pH.

A value given as a limit tells only on which side of the number the result lay.

T3 sequence (P0A879 whole entry): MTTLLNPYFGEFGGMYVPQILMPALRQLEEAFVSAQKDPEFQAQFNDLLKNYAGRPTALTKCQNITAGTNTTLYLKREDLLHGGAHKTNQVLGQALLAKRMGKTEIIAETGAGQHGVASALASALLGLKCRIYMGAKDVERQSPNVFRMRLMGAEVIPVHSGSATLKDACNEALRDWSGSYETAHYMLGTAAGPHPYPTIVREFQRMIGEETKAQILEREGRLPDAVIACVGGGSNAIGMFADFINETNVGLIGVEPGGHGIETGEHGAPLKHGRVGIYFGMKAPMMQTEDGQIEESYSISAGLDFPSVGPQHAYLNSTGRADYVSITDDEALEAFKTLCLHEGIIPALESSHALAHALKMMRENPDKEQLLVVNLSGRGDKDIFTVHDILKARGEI
T3 sequence (P0A877 whole entry, further chain): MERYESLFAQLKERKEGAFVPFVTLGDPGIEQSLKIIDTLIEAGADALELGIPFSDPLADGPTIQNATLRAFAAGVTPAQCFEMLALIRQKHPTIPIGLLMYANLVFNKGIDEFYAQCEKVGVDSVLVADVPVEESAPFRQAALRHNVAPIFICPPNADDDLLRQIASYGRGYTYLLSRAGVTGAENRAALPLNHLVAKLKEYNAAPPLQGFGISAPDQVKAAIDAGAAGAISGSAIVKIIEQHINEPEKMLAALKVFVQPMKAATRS
T1 sequence (P0A879 whole entry): as the sequence (P0A879 whole entry) above
T1 sequence (P0A877 whole entry, further chain): as the sequence (P0A877 whole entry, further chain) above
T4 sequence (P0A853 whole entry): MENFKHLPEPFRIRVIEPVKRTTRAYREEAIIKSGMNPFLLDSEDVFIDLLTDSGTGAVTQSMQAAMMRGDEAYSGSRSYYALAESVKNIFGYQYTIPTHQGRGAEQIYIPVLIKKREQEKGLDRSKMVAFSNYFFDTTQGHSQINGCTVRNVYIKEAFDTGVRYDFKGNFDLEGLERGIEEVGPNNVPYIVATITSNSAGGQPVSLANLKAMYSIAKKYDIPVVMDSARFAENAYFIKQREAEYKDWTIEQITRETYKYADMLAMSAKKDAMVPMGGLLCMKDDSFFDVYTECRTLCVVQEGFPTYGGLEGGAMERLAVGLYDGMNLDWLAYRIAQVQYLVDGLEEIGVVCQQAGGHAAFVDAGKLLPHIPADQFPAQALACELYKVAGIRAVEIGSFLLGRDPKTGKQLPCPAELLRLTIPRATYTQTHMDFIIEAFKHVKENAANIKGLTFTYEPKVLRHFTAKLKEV
T2 sequence (P0A853 whole entry): as above

For the molecule `COc1cc2cc[nH]c2cc1OC` [5,6-dimethoxy, 5,6-dimethoxyindole], the “TrpBA (tryptophan product spot, TLC analysis)” value in series [1] is recorded as “−”. The “Relative Rate (TnA)” value on TnA is 2.1%. In addition, in the series on TrpBA and TDC1, the “formation of tryptophan derivative and tryptamine (HPLC peaks)” value (“formation” for short) is on record as “a second peak representing formation of tryptamine”. Also, the “Relative rate (TrpBA)” value on TrpBA was “**”. Besides, the “TnA (tryptophan product spot, TLC analysis)” value at tryptophanase (TnA) is on record as “(+)”.

Take `c1cc2cc3c(cc2[nH]1)OCO3` [5,6-methylenedioxy-]: the “TrpBA (tryptophan product spot, TLC analysis)” value in series [1] is listed as “−”. Moreover, on TnA, the “Relative Rate (TnA)” value is listed as 1.0%. On TrpBA (L-serine), the “Relative rate (TrpBA)” value was 0.018%. The “TnA (tryptophan product spot, TLC analysis)” value on tryptophanase (TnA) is “+”.

For `OCc1ccc2[nH]ccc2c1` [5-hydroxymethyl-, indole-5-methanol], the “TrpBA (tryptophan product spot, TLC analysis)” value in series [1] is given as “+”. The “Relative Rate (TnA)” value at TnA is 1.2%. Also, the “formation” value with TrpBA and TDC1 is reported as “a second peak representing formation of tryptamine”. Moreover, the “Relative rate (TrpBA)” value at TrpBA (L-serine) is 0.03%. Besides, at tryptophanase (TnA), the “TnA (tryptophan product spot, TLC analysis)” value is “+”.

Consider `c1ccc2[nH]ccc2c1` [indole, reference compound], for which the “TrpBA (tryptophan product spot, TLC analysis)” value in series [1] is recorded as “+”. In addition, the “Relative Rate (TnA)” value at TnA was 100%. Also, the “formation” value in the series with TrpBA and TDC1 is listed as “clearly observable”. For the same molecule, the “Relative rate (TrpBA)” value on TrpBA (L-serine) is 100%. For the same molecule, the “TnA (tryptophan product spot, TLC analysis)” value on tryptophanase (TnA) is “+”.

The molecule “TnA: E. coli tryptophanase, E.C. 4.1.99.1, cloned and expressed in E. coli” had a Crude specific activity in series [2] (Table 3, TnA) of 0.8 units/mg. The molecule further gave a Crude spec activity in series [2] (TnA, tryptophan->indole+pyruvate+NH4+, room temperature) of 0.8. In series [2] (TnA, tryptophan->indole+pyruvate+NH4+, room temperature, after DEAE cellulose), this molecule registered a Purified specific activity of 2.0 Units/mg. For the same molecule, the “percent of the maximum rate” value in series [3] was at least 84%.

The values above are taken from patent US20030096379A1, “Method for producing tryptamine derivatives” (priority 2001, published 2003).
